Patent US20050058603A1, “Drug delivery system based on polymer nanoshells” (Case Western Reserve University, priority 2003, published 2005)

System: MCF-7 cells
Experiment: Cytotoxicity study of DOX loaded shells vs free doxorubicin solution and empty shells
Settings: 5 days
Method: Human breast cancer MCF-7 cells were obtained from ATCC.
Free DOX solution, DOX-loaded shells, and empty shells of different concentrations were used in cell cytotoxicity studies for 5 days.
A cytotoxicity study of DOX loaded shells was carried out in vitro as compared to free doxorubicin solution (FIG. 13).
All samples were incubated in culture media for 5 days.

COc1cccc2c1C(=O)c1c(O)c3c(c(O)c1C2=O)C[C@@](O)(C(=O)CO)C[C@@H]3O[C@H]1C[C@H](N)[C@H](O)[C@H](C)O1.Cl [Doxorubicin solution, Doxorubicin]
cytotoxicity compared to free DOX solution: strongest cytotoxicity
